Assay results from US9499811B2, “Ligation enhancement” (New England Biolabs, Inc., priority 2011, dated 2016).
Values joined by “and” are separate entries in the source; they are usually repeats but may differ in a detail not shown here. Equal entries are not always repeated. “Also recorded” adds a separate entry of the source.

Assays:
T4 DNA ligase = target: T1, T4 DNA ligase (Enterobacteria phage T4, UniProt P00970); assay: Ligation of one, two or three pUC19 fragments with single-base overhangs, transformation and gel analysis; assay type: biochemical; parameters: purchased NEB (New England Biolabs), Ipswich, Mass. #M0202; settings: for Ligation/Subsequent Transformation Enhancement: 12% 1,2-PrD vs none; for Transformation Efficiency +1,2-PrD / Resultant Colonies +1,2-PrD: 12% 1,2-PrD; for Resultant Colonies +1,2-PrD: 20 pg DNA plated
T1 sequence (P00970 1-487): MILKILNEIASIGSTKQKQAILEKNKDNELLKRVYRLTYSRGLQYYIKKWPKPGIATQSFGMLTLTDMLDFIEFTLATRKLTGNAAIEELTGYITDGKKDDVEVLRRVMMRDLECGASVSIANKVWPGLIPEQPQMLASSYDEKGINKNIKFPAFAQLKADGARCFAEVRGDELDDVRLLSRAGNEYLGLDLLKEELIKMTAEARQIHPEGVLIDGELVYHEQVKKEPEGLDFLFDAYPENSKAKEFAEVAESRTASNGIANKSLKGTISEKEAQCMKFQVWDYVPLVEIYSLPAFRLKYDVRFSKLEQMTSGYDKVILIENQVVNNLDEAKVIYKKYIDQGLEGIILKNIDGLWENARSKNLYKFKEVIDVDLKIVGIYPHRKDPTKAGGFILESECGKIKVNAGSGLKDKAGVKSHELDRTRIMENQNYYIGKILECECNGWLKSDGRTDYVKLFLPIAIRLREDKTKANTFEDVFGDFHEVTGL
Description: FIGS. 4A-C show agarose gel electrophoresis analysis of ligation products achieved using +/−12% 1,2-PrD for one, two and three pUC19 fragment sets as described in FIGS. 3A-C. The marker lane indicated by M corresponds to 1 μg of a 2-log DNA ladder, New England Biolabs, Inc. (NEB), Ipswich, Mass., #3200. (1) is a 2686-bp linear AhdI-pUC19 fragment; (2) are 1527-bp and 1159-bp BciVI fragments; (3) are 2 lengths (2275-bp and 287-bp) of 3 BccI fragments where the third 124-bp fragment is not visible on the gel; (4) is a linearized intermediate ligation product formed by 2275-bp and 287-bp BccI fragments; (5) is the desired ligated/circularized plasmid which is a highly transformable desired product; and (6) are different kinds of linear and circular undesired concatameric ligation products which are not highly transformable.
(§1) For chemically competent cell transformations, the cell-DNA mixture was incubated on ice for 30 min, heat-shocked at 42° C. for 30 sec, then returned to ice for 5 min. A volume of 950 μl SOC medium (2% vegetable peptone or Tryptone, 0.5% yeast extract, 10 mM NaCl, 2.5 mM KCl, 10 mM MgCl2, 10 mM MgSO4 and 20 mM glucose) was added to the cell-DNA mixture, followed by a one hr 37° C. outgrowth period with agitation. A volume of 25-50 μl of appropriately diluted cells in SOC was spread onto Rich Agar plates (composition per liter: 10 g soy peptone, 5 g yeast extract, 10 g NaCl, 1 g MgCl2-6H2O, 1 g dextrose, 15 grams agar) supplemented with 100 μg/ml ampicillin. Plates were inverted and incubated for 16 hrs at 37° C., followed by quantification of total colony numbers.
Single fragment ligation (recircularization), two fragment ligation (cloning) and three fragment ligation (assembly) reactions were performed in the presence of 1,2-PrD (see FIGS. 3A-C). Restriction digests of pUC19 plasmid constructs were performed to completion by monitoring the reactions using 1% agarose gel electrophoresis. Upon completion all restriction enzymes were heat-inactivated by incubating the reaction for 20 min at 65° C. The DNA was purified by use of QiaQuick® (Qiagen, Valencia, Calif.) spin columns and quantified by comparison to known DNA standards by 1% agarose gel electrophoresis. […] Ligation reactions were performed as described in FIGS. 3A-C using 100 ng of DNA that had been restricted by AhdI, BciVI or BccI to leave a variety of single-base overhangs. From each 21 μl ligation reaction, 2 μl was used for transformation as analyzed in Table 4 and 19 μl was run on a 1% agarose gel prepared with tris-borate as described in FIGS. 4A-C. […] This is the highly transformable DNA circularized form.
The ligations took place with and without 12% 1,2-PrD present for 10 min at room temperature (25° C.) with 2000 units T4 DNA ligase. A volume of 2 μl from each ligation reaction was transformed into chemically competent DH5 alpha cells as described in Example 1. A volume of 40 μl of a 1:20 dilution of the outgrowth in SOC medium was plated on medium Rich Agar plates supplemented with ampicillin. This volume corresponded to 20 pg of DNA from the original ligation reaction.

[1] = tested on: chemically competent DH5 alpha E. coli cells; assay: Mock ligation with supercoiled pUC19 DNA and transformation (control); assay type: cell-based; settings: 12% 1,2-PrD; for Transformants from 2 pg SC DNA: supercoiled pUC19
Description: as §1
Mock DNA ligations were set up with 1 ng of supercoiled pUC19 DNA in 1× regular DNA ligase buffer in the presence and absence of 2000 units T4 DNA ligase and with or without 12% 1,2-PrD. Ligation reactions were conducted using the standard protocol in Example 1 and transformations with chemically competent DH5 alpha E. coli cells. 40 μl of a 1:20 dilution of the 1 ml SOC outgrowth containing 2 pg supercoiled DNA was plated onto agarose plates and incubated overnight.
This illustrates the enhancement is at the ligation step and not the transformation step.

[2] = 1 fragment (AhdI-linearized pUC19)

With `CC(O)CO` (stereo not shown) [1,2-PrD, 1,2-propanediol] the “Ligation/Subsequent Transformation Enhancement” value (T4 DNA ligase; [2]) was 12-fold, the “Ligation/Subsequent Transformation Enhancement” value (T4 DNA ligase; 2 fragments (BciVI-pUC19)) was “At least 35-fold” and the “Ligation/Subsequent Transformation Enhancement” value (T4 DNA ligase; 3 fragments (BccI-pUC19)) was 18-fold. The “Transformation Efficiency +1,2-PrD” value (T4 DNA ligase; [2]) was 51.4 × 10e^6/μg DNA, the “Resultant Colonies +1,2-PrD” value (T4 DNA ligase; 1 fragment (AhdI-linearized pUC19), 2000 units T4 DNA ligase, 10 min 25 C) was 1027 and the “Transformation Efficiency +1,2-PrD” value (T4 DNA ligase; 2 fragments (BciVI-pUC19)) was 1.8 × 10e^6/μg DNA. For the same compound, the “Resultant Colonies +1,2-PrD” value (T4 DNA ligase; 2 fragments (BciVI-pUC19)) was 35, the “Transformation Efficiency +1,2-PrD” value (T4 DNA ligase; 3 fragments (BccI-pUC19)) was 1.85 × 10e^6/μg DNA and the “Resultant Colonies +1,2-PrD” value (T4 DNA ligase; 3 fragments (BccI-pUC19)) was 37. For the same compound, the “Amount of ligated circularized plasmid on agarose gel” value (T4 DNA ligase; +/-12% 1,2-PrD, one, two and three pUC19 fragment sets (FIGS. 4A-C)) was “significant beneficial effect on the amount of ligated circularized plasmid”, the “Transformants from 2 pg SC DNA” value ([1]; 2000 U T4 DNA ligase, duplicate reactions) was 82 and 73 and the “Transformants from 2 pg SC DNA” value ([1]; T4 DNA ligase none) was 126. For the same compound, the “Effect on transformation with supercoiled pUC19 DNA” value ([1]; with or without T4 DNA ligase) was “not statistically altered; also recorded: does not affect nor interfere with transformation”.
